Measured values from patent US7592160B2, “Processes for producing isomaltose and isomaltitol and use thereof” (Kabushiki Kaisha Hayashibara Seibutsu Kagaku Kenkyujo, priority 2001, dated 2009).

Assays:
Parameters in all cases: key: −: it showed no change; +: it showed a slight reduction of the color spot of the substrate and the formation of other reaction product; ++: it showed a high reduction of the color spot of the substrate and the formation of other reaction product; +++: it showed a substantial disappearance of the substrate spot and the formation of other reaction product
[1] = test system: α-isomaltosylglucosaccharide-forming enzyme; assay: Action on saccharides as substrates (TLC), enzyme of A19 strain; assay type: biochemical, Arthrobacter globiformis A19 strain; conditions: two units/g substrate, substrate 2% (w/v), 30° C., pH 8.4, 24 hours
Source text: (§1) To examine the saccharides in the supernatant, they were separated by developing twice on silica gel thin-layer chromatography (abbreviated as “TLC” hereinafter) using, as a developer, a mixture solution of n-butanol, pyridine, and water (=6:4:1 by volume), and, as a thin-layer plate, “[…]™ 60”, an aluminum plate (20×20 cm) for TLC commercialized by Merck & Co., Inc., Rahway, USA. The coloration of the separated total sugars by the sulfuric acid-methanol method and that of the reducing saccharides by the diphenylamine-aniline method detected a non-reducing saccharide positive at an Rf value of about 0.31 on the former detection method but negative on the latter detection method.
(§2) It was tested whether any saccharides can be used as substrates for α-isomaltosylglucosaccharide-forming enzyme. For the purpose, a solution of maltose, maltotriose, maltotetraose, maltopentaose, maltohexaose, maltoheptaose, isomaltose, isomaltotriose, panose, isopanose, α,α-trehalose, kojibiose, nigerose, neotrehalose, cellobiose, gentibiose, maltitol, maltotriitol, lactose, sucrose, erlose, selaginose, maltosyl glucoside, or isomaltosyl glucoside was prepared.
(§3) To each of the above solutions was added two units/g substrate of a purified specimen of α-isomaltosylglucosaccharide-forming enzyme from either Bacillus globisporus C9 strain obtained by the method in Experiment 4-2, Bacillus globisporus C11 strain obtained by the method in Experiment 7-2, Bacillus globisporus N75 strain obtained by the method in Experiment 11-2, or Arthrobacter globiformis A19 strain obtained by the method in Experiment 15-2, and the resulting each solution was adjusted to give a substrate concentration of 2% (w/v) and incubated at 30° C. and pH 6.0 for 24 hours, except for using pH 8.4 for the enzyme from Arthrobacter globiformis A19 strain. The enzyme solutions before and after the enzymatic reactions were respectively analyzed on TLC disclosed in Experiment 1 to confirm whether the enzymes acted on these substrates.

[2] = test system: α-isomaltosylglucosaccharide-forming enzyme; assay: Action on saccharides as substrates (TLC), enzyme of C11 strain; assay type: biochemical, Bacillus globisporus C11 strain; conditions: two units/g substrate, substrate 2% (w/v), 30° C., pH 6.0, 24 hours
Source text: as §1, §2, §3

[3] = test system: α-isomaltosylglucosaccharide-forming enzyme; assay: Action on saccharides as substrates (TLC), enzyme of N75 strain; assay type: biochemical, Bacillus globisporus N75 strain; conditions: two units/g substrate, substrate 2% (w/v), 30° C., pH 6.0, 24 hours
Source text: as §1, §2, §3

[4] = test system: α-isomaltosylglucosaccharide-forming enzyme; assay: Action on saccharides as substrates (TLC), enzyme of C9 strain; assay type: biochemical, Bacillus globisporus C9 strain; conditions: two units/g substrate, substrate 2% (w/v), 30° C., pH 6.0, 24 hours
Source text: as §1, §2, §3

Enzymatic action, Enzyme of A19 strain [1]	Enzymatic action, Enzyme of C11 strain [2]	Enzymatic action, Enzyme of N75 strain [3]	Enzymatic action, Enzyme of C9 strain [4]	Compound
+	+	+	+	OC[C@H]1O[C@@](CO)(O[C@H]2O[C@H](CO)[C@@H](O[C@H]3O[C@H](CO)[C@@H](O)[C@H](O)[C@H]3O)[C@H](O)[C@H]2O)[C@@H](O)[C@@H]1O [Erlose, erlose]
++	++	++	++	OC[C@H]1O[C@H](O[C@H]2[C@H](O)[C@@H](O)[C@@H](OC[C@H]3OC(O)[C@H](O)[C@@H](O)[C@@H]3O)O[C@@H]2CO)[C@H](O)[C@@H](O)[C@@H]1O (some centres unmarked) [Isopanose, isopanose]
+	+	+	+	OC[C@H]1O[C@H](O[C@H]2C(O)O[C@H](CO)[C@@H](O)[C@@H]2O)[C@H](O)[C@@H](O)[C@@H]1O (some centres unmarked) [Kojibiose, kojibiose]
+	+	+	+	OC[C@H]1O[C@H](O[C@H]2[C@H](O)[C@@H](O)[C@H](O)O[C@@H]2CO)[C@H](O)[C@@H](O)[C@@H]1O [Maltose, maltose]
++	++	++	++	OC[C@H]1O[C@H](O[C@H]2O[C@H](CO)[C@@H](O[C@H]3O[C@H](CO)[C@@H](O)[C@H](O)[C@H]3O)[C@H](O)[C@H]2O)[C@H](O)[C@@H](O)[C@@H]1O [Maltosyl glucoside, maltosyl glucoside]
+++	+++	+++	+++	OC[C@H]1O[C@H](O[C@H]2[C@H](O)[C@@H](O)[C@@H](O[C@H]3[C@H](O)[C@@H](O)[C@@H](O[C@H]4[C@H](O)[C@@H](O)C(O)O[C@@H]4CO)O[C@@H]3CO)O[C@@H]2CO)[C@H](O)[C@@H](O)[C@@H]1O (some centres unmarked) [Maltotetraose, maltotetraose]
+	+	+	+	OC[C@@H](O)[C@@H](O[C@H]1O[C@H](CO)[C@@H](O[C@H]2O[C@H](CO)[C@@H](O)[C@H](O)[C@H]2O)[C@H](O)[C@H]1O)[C@H](O)[C@@H](O)CO [Maltotriitol, maltotriitol]
+	+	+	+	OC[C@H]1O[C@@H](O[C@H]2O[C@H](CO)[C@@H](O)[C@H](O)[C@H]2O)[C@H](O)[C@@H](O)[C@@H]1O [Neotrehalose, neotrehalose]
+	+	+	+	OC[C@H]1O[C@H](O[C@H]2[C@H](O)[C@@H](CO)OC(O)[C@@H]2O)[C@H](O)[C@@H](O)[C@@H]1O (some centres unmarked) [Nigerose, nigerose]
−	−	−	−	OC[C@H]1O[C@H](OC[C@H]2O[C@H](O[C@H]3[C@H](O)[C@@H](O)C(O)O[C@@H]3CO)[C@H](O)[C@@H](O)[C@@H]2O)[C@H](O)[C@@H](O)[C@@H]1O (some centres unmarked) [Panose, panose]
−	−	−	−	OC[C@H]1O[C@H](O[C@H]2O[C@H](CO)[C@@H](O)[C@H](O)[C@H]2O[C@H]2O[C@H](CO)[C@@H](O)[C@H](O)[C@H]2O)[C@H](O)[C@@H](O)[C@@H]1O [Selaginose, selaginose]
